Earlier results in patent US20110236473A1, “STABLE ALISKIREN FORMULATIONS” (Sanovel Ilac Sanayi Ve Ticaret Anonim Sirketi, priority 2010, published 2011).
Like-named read-outs stand apart in the source and are kept apart here.

Measured: solubility

COCCCOc1cc(C[C@@H](C[C@H](N)[C@@H](O)C[C@@H](C(=O)NCC(C)(C)C(N)=O)C(C)C)C(C)C)ccc1OC [Aliskiren hemifumarate, (2S,4S,5S,7S)-5-amino-N-(2-carbamoyl-2-methylpropyl)-4-hydroxy-2-isopropyl-7-[4-methoxy-3-(3-methoxypropoxy)benzyl]-8-methylnonamide]
freely soluble: in n-octanol | in phosphate buffer | in water
